Patent US6525001B1, “Substituted pyrimidine and pyridine herbicides” (Mid-American Commercialization Corporation, priority 1997, dated 2003)

What was measured:
Assay in all cases: Test B pre-/postemergence
Assay type in all cases: in vivo
Set-up in all cases: key: 0 is no effect; 10 is complete control
[1] = test system: bedstraw (Galium aparine)
How it was run: (§1)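 Seeds were planted and sprayed preemergence, while plants at 2 to 18 cm (1- to 4-leaf stage) were sprayed postemergence at the same time, with test chemical in a non-phytotoxic solvent mixture containing surfactant. After twelve to sixteen days in a greenhouse, injury was rated visually against untreated controls on a 0–10 scale.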

[2] = test system: cocklebur (Xanthium strumarium)
How it was run: as §1

corn (Zea mays) = test system: corn (Zea mays)
How it was run: as §1

[3] = test system: crabgrass (Digitaria sanguinalis)
How it was run: as §1

[4] = test system: giant foxtail (Setaria faberii)
How it was run: as §1

[5] = test system: momingglory (Ipomoea hederacea)
How it was run: as §1

[6] = test system: pigweed (Amaranthus retroflexus)
How it was run: as §1

[7] = test system: purple nutsedge (Cyperus rotundus)
How it was run: as §1

rape (Brassica napus) = test system: rape (Brassica napus)
How it was run: as §1

soybean (Glycine max) = test system: soybean (Glycine max)
How it was run: as §1

[8] = test system: sugar beet (Beta vulgaris)
How it was run: as §1

[9] = test system: velvetleaf (Abutilon theophrasti)
How it was run: as §1

[10] = test system: wheat (Triticum aestivum)
How it was run: as §1

## Cc1cnc(-n2ccc(C(F)(F)F)n2)nc1Cc1cccc(C(F)(F)F)c1 [Example 2, 5-methyl-4-[[3-(trifluoromethyl)phenyl]methyl]-2-[3-(trifluoromethyl)-1H-pyrazol-1-yl]pyrimidine]
[1]; Rate 62 g/ha, Postemergence
  Plant response rating, Bedstraw: 9
[1]; Rate 62 g/ha, Preemergence
  Bedstraw plant response rating: 10
[1]; Rate 125 g/ha, Postemergence
  Plant response rating, Bedstraw: 9
[1]; Rate 125 g/ha, Preemergence
  Bedstraw plant response rating: 10
[1]; Rate 250 g/ha, Postemergence
  Plant response rating, Bedstraw: 9
[1]; Rate 250 g/ha, Preemergence
  Plant response rating, Bedstraw: 10
[1]; Rate 500 g/ha, Postemergence
  Plant response rating, Bedstraw: 9
[1]; Rate 500 g/ha, Preemergence
  Plant response rating, Bedstraw: 10
[2]; Rate 62 g/ha, Postemergence
  Plant response rating, Cocklebur: 8
[2]; Rate 62 g/ha, Preemergence
  Cocklebur plant response rating: 0
[2]; Rate 125 g/ha, Postemergence
  Plant response rating, Cocklebur: 8
[2]; Rate 125 g/ha, Preemergence
  Cocklebur plant response rating: 1
[2]; Rate 250 g/ha, Postemergence
  Plant response rating, Cocklebur: 8
[2]; Rate 250 g/ha, Preemergence
  Plant response rating, Cocklebur: 1
[2]; Rate 500 g/ha, Postemergence
  Plant response rating, Cocklebur: 9
[2]; Rate 500 g/ha, Preemergence
  Plant response rating, Cocklebur: 3
Corn (Zea mays); Rate 62 g/ha, Postemergence
  Plant response rating, Corn: 2
Corn (Zea mays); Rate 62 g/ha, Preemergence
  Corn plant response rating: 0
Corn (Zea mays); Rate 125 g/ha, Postemergence
  Plant response rating, Corn: 4
Corn (Zea mays); Rate 125 g/ha, Preemergence
  Corn plant response rating: 1
Corn (Zea mays); Rate 250 g/ha, Postemergence
  Plant response rating, Corn: 6
Corn (Zea mays); Rate 250 g/ha, Preemergence
  Plant response rating, Corn: 1
Corn (Zea mays); Rate 500 g/ha, Postemergence
  Plant response rating, Corn: 7
Corn (Zea mays); Rate 500 g/ha, Preemergence
  Plant response rating, Corn: 2
[3]; Rate 62 g/ha, Postemergence
  Plant response rating, Crabgrass: 8
[3]; Rate 62 g/ha, Preemergence
  Crabgrass plant response rating: 9
[3]; Rate 125 g/ha, Postemergence
  Plant response rating, Crabgrass: 9
[3]; Rate 125 g/ha, Preemergence
  Crabgrass plant response rating: 10
[3]; Rate 250 g/ha, Postemergence
  Plant response rating, Crabgrass: 9
[3]; Rate 250 g/ha, Preemergence
  Plant response rating, Crabgrass: 10
[3]; Rate 500 g/ha, Postemergence
  Plant response rating, Crabgrass: 10
[3]; Rate 500 g/ha, Preemergence
  Plant response rating, Crabgrass: 10
[4]; Rate 62 g/ha, Postemergence
  Plant response rating, Giant foxtail: 7
[4]; Rate 62 g/ha, Preemergence
  Giant foxtail plant response rating: 10
[4]; Rate 125 g/ha, Postemergence
  Plant response rating, Giant foxtail: 9
[4]; Rate 125 g/ha, Preemergence
  Giant foxtail plant response rating: 10
[4]; Rate 250 g/ha, Postemergence
  Plant response rating, Giant foxtail: 9
[4]; Rate 250 g/ha, Preemergence
  Plant response rating, Giant foxtail: 10
[4]; Rate 500 g/ha, Postemergence
  Plant response rating, Giant foxtail: 10
[4]; Rate 500 g/ha, Preemergence
  Plant response rating, Giant foxtail: 10
[5]; Rate 62 g/ha, Postemergence
  Plant response rating, Morningglory: 8
[5]; Rate 62 g/ha, Preemergence
  Morningglory plant response rating: 7
[5]; Rate 125 g/ha, Postemergence
  Plant response rating, Morningglory: 9
[5]; Rate 125 g/ha, Preemergence
  Morningglory plant response rating: 9
[5]; Rate 250 g/ha, Postemergence
  Plant response rating, Morningglory: 9
[5]; Rate 250 g/ha, Preemergence
  Plant response rating, Morningglory: 10
[5]; Rate 500 g/ha, Postemergence
  Plant response rating, Morningglory: 9
[5]; Rate 500 g/ha, Preemergence
  Plant response rating, Morningglory: 10
[6]; Rate 62 g/ha, Postemergence
  Plant response rating, Redroot pigweed: 7
[6]; Rate 62 g/ha, Preemergence
  Redroot pigweed plant response rating: 10
[6]; Rate 125 g/ha, Postemergence
  Plant response rating, Redroot pigweed: 9
[6]; Rate 125 g/ha, Preemergence
  Redroot pigweed plant response rating: 10
[6]; Rate 250 g/ha, Postemergence
  Plant response rating, Redroot pigweed: 9
[6]; Rate 250 g/ha, Preemergence
  Plant response rating, Redroot pigweed: 10
[6]; Rate 500 g/ha, Postemergence
  Plant response rating, Redroot pigweed: 9
[6]; Rate 500 g/ha, Preemergence
  Plant response rating, Redroot pigweed: 10
[7]; Rate 62 g/ha, Postemergence
  Plant response rating, Nutsedge: 0
[7]; Rate 62 g/ha, Preemergence
  Nutsedge plant response rating: 0
[7]; Rate 125 g/ha, Postemergence
  Plant response rating, Nutsedge: 0
[7]; Rate 125 g/ha, Preemergence
  Nutsedge plant response rating: 0
[7]; Rate 250 g/ha, Preemergence
  Plant response rating, Nutsedge: 0
[7]; Rate 500 g/ha, Postemergence
  Plant response rating, Nutsedge: 2
[7]; Rate 500 g/ha, Preemergence
  Plant response rating, Nutsedge: 0
Rape (Brassica napus); Rate 62 g/ha, Postemergence
  Plant response rating, Rape: 9
Rape (Brassica napus); Rate 62 g/ha, Preemergence
  Rape plant response rating: 10
Rape (Brassica napus); Rate 125 g/ha, Postemergence
  Plant response rating, Rape: 9
Rape (Brassica napus); Rate 125 g/ha, Preemergence
  Rape plant response rating: 10
Rape (Brassica napus); Rate 250 g/ha, Postemergence
  Plant response rating, Rape: 9
Rape (Brassica napus); Rate 250 g/ha, Preemergence
  Plant response rating, Rape: 10
Rape (Brassica napus); Rate 500 g/ha, Postemergence
  Plant response rating, Rape: 10
Rape (Brassica napus); Rate 500 g/ha, Preemergence
  Plant response rating, Rape: 10
Soybean (Glycine max); Rate 62 g/ha, Postemergence
  Plant response rating, Soybean: 6
Soybean (Glycine max); Rate 62 g/ha, Preemergence
  Soybean plant response rating: 0
Soybean (Glycine max); Rate 125 g/ha, Postemergence
  Plant response rating, Soybean: 7
Soybean (Glycine max); Rate 125 g/ha, Preemergence
  Soybean plant response rating: 1
Soybean (Glycine max); Rate 250 g/ha, Postemergence
  Plant response rating, Soybean: 8
Soybean (Glycine max); Rate 250 g/ha, Preemergence
  Plant response rating, Soybean: 2
Soybean (Glycine max); Rate 500 g/ha, Postemergence
  Plant response rating, Soybean: 8
Soybean (Glycine max); Rate 500 g/ha, Preemergence
  Plant response rating, Soybean: 5
[8]; Rate 62 g/ha, Postemergence
  Plant response rating, Sugarbeets: 9
[8]; Rate 62 g/ha, Preemergence
  Sugarbeets plant response rating: 10
[8]; Rate 125 g/ha, Postemergence
  Plant response rating, Sugarbeets: 9
[8]; Rate 125 g/ha, Preemergence
  Sugarbeets plant response rating: 10
[8]; Rate 250 g/ha, Postemergence
  Plant response rating, Sugarbeets: 9
[8]; Rate 250 g/ha, Preemergence
  Plant response rating, Sugarbeets: 10
[8]; Rate 500 g/ha, Postemergence
  Plant response rating, Sugarbeets: 9
[8]; Rate 500 g/ha, Preemergence
  Plant response rating, Sugarbeets: 10
[9]; Rate 62 g/ha, Postemergence
  Plant response rating, Velvetleaf: 8
[9]; Rate 62 g/ha, Preemergence
  Velvetleaf plant response rating: 6
[9]; Rate 125 g/ha, Postemergence
  Plant response rating, Velvetleaf: 9
[9]; Rate 125 g/ha, Preemergence
  Velvetleaf plant response rating: 6
[9]; Rate 250 g/ha, Postemergence
  Plant response rating, Velvetleaf: 9
[9]; Rate 250 g/ha, Preemergence
  Plant response rating, Velvetleaf: 8
[9]; Rate 500 g/ha, Postemergence
  Plant response rating, Velvetleaf: 9
[9]; Rate 500 g/ha, Preemergence
  Plant response rating, Velvetleaf: 10
[10]; Rate 62 g/ha, Postemergence
  Plant response rating, Wheat: 2
[10]; Rate 62 g/ha, Preemergence
  Wheat plant response rating: 1
[10]; Rate 125 g/ha, Postemergence
  Plant response rating, Wheat: 2
[10]; Rate 125 g/ha, Preemergence
  Wheat plant response rating: 2
[10]; Rate 250 g/ha, Postemergence
  Plant response rating, Wheat: 3
[10]; Rate 250 g/ha, Preemergence
  Plant response rating, Wheat: 3
[10]; Rate 500 g/ha, Postemergence
  Plant response rating, Wheat: 5
[10]; Rate 500 g/ha, Preemergence
  Plant response rating, Wheat: 3
